Results on three substances are retold here after patent EP0469084B1, “HEPATOSPECIFIC INSULIN ANALOGUES” (MOUNT SINAI SCHOOL OF MEDICINE OF THE CITY UNIVERSITY OF …, priority 1989, dated 1995).

The conditions of assay [1]: from U.S. Patent 4,992,417 and PCT/US88/02289; cited from earlier work.
A further assay deals with insulin receptors. The experiment in a line: Insulin receptor binding assay (inhibition of specific 125I-insulin binding, rat liver plasma membrane fraction). To be noted: concentration ratio of unlabelled insulin to analogue required to inhibit 50% of specific 125I-insulin binding; rat liver plasma membranes, 45 min at 24°C, pH 7.4. How it is done:
Although insulin analogues, in general, maintain some residual insulin activity, the potency of such analogues is usually only a fraction of that of natural insulins. The potency of human, bovine and porcine insulins in USP standards is about 25-26 IU (international units) per mg protein. […]
Briefly, triplicate 0.2ml incubations contained ¹²⁵I-insulin, 3 x 10⁻¹⁰M, unlabelled insulin or [Trp¹⁴-A] insulin prepared as in Example 1, and plasma membranes (20-40 »g of protein) in 0.1 M sodium phosphate, pH 7.4, containing 0.6% fraction V bovine serum albumin. […] The filters were washed twice with the ice cold buffer, dried, and then radioactivity was counted in a scintillation counter using Filtron-X®. […]

A further assay deals with rat adipocytes. Kind of assay: Lipogenesis assay (conversion of [3-3H] glucose into lipids in isolated adipocytes). The assay is classed as cell-based. To be noted: for potency in lipogenesis compared to the natural hormone: concentration ratio of bovine insulin to analogue producing 50% of maximum stimulation of lipogenesis. An excerpt: (§1) Although insulin analogues, in general, maintain some residual insulin activity, the potency of such analogues is usually only a fraction of that of natural insulins. The potency of human, bovine and porcine insulins in USP standards is about 25-26 IU (international units) per mg protein. Standard assay for measuring insulin potency include inter alia (1) insulin radioreceptorassays, in which the relative potency of an insulin is defined as the ratio of insulin to insulin analogue required to displace 50% of ¹²⁵I-insulin specifically bound to insulin receptors present on cell membranes, e.g. a rat liver plasma membrane fraction, isolated rat adipocytes, or isolated rat hepatocytes; (2) lipogenesis assays, performed e.g. with rat adipocytes, in which relative insulin potency is defined as the ratio of insulin to insulin analogue required to achieve 50% of the maximum conversion of [3-³H] glucose into organic-extractable material (i.e. lipids); (3) glucose oxidation assays in isolated fat cells in which the relative potency of the insulin analogue is defined as the ratio of insulin to insulin analogue to achieve 50% of the maximum conversion of glucose-1-[¹⁴C] into [¹⁴CO₂]; (4) insulin radioimmunoassays which can determine the immunogenicity of insulin analogues by measuring the effectiveness by which insulin or an insulin analogue competes with ¹²⁵I-insulin in binding to specific anti-insulin antibodies; (5) inhibition of gluconeogenesis performed on confluent monolayers of a well differentiated hepatoma cell line (FAO) in which inhibition of glucose secretion into the medium is determined as a function of the concentration of insulin or insulin analogue.
In this Example the materials used and the analytical procedures followed are those found in Kitagawa et al., Biochemistry, 23: 1405-1413 (1984). ¹²⁵I-insulin for receptor binding studies and [3-³H] glucose for lipogenesis were obtained from DuPont NEN Research Products. Cellulose acetate membrane filters, 0.2 »m pore size, were products of Sartorius. Glass-fiber filters, Type GFC, were from Whatman. Collagenase, Type II crude, was obtained from Worthington. […]
These assays measured the ability of the insulin analogue as compared to bovine insulin to convert [3-³H] glucose into lipids.
Adipocytes were prepared by incubating epididymal and perirenal fat pads obtained from male rats weighing 200-300 g with 1.0 mg/ml collagenase for 60 min at 37°C, followed by filtration through gauze and then through fine-mesh silk. […] Samples were extracted with 10 ml of Soluscint-0® for 30 min at room temperature before counting the radioactivity in a scintillation counter. […] Zero and 100% stimulation of lipogenesis were defined as radioactivity observed in the absence and presence, respectively, of 9.1 x 10⁻¹⁰M insulin (5.5 ng/ml). […]

A further assay deals with FAO cells. The experiment in a line: Inhibition of gluconeogenesis assay (glucose secretion by confluent hepatoma cell monolayers). The assay is classed as cell-based. To be noted: for potency in inhibiting gluconeogenesis relative to the natural hormone: ratio of concentration of insulin to analogue producing half-maximal inhibition of glucose production, FAO hepatoma cells.
Description: as §1
This assay was carried out on confluent monolayers of a well differentiated hepatoma cell line (Lauris et al. Endocrinology 118:2519-2524 (1986)) in which glucose production was monitored with a commercial glucose oxidase kit (Sigma kit no. 510-A, Sigma Technical Bulletin 510, 1983). Inhibition of glucose secretion into the medium was determined as a function of the concentration of insulin or insulin analogue, and the relative potency of the analogue was defined as the ratio of the concentration of insulin to analogue required to produce half-maximal inhibition of glucose production. The cell culture and glucose production was carried out as described by Lauris et al., supra.
The potency of the synthetic insulin in inhibiting gluconeogenesis is calculated to be about 90% relative to the natural hormone.

For assay [2] the following is noted: from W. Danho et al., Chemical Abstracts 94: 47733x; cited from earlier work.
Where [3] appears, read: compared with insulin, FAO cells.

Turning to [10-Aspartic Acid-B] human insulin, the “potency relative to natural insulins” value in assay [1] is recorded as 4 to 5 times.

As to [Trp¹⁴-A] insulin, the “potency of that of the natural hormone (relative potency, receptor binding)” value in the assay with insulin receptors is “about 60%”. In addition, the “concentration of agonist producing half-maximal stimulation of lipogenesis” value in the assay on rat adipocytes (compared with bovine insulin) was “about twice the concentration of agonist”. For the same substance, the “maximum stimulation of lipogenesis” value in the assay with rat adipocytes (compared with bovine insulin) is “same maximum stimulation of lipogenesis”. Besides, the “potency in lipogenesis compared to the natural hormone” value is on record as “about 60%” in the assay with rat adipocytes and “approximately 60%” in the assay on rat adipocytes (listed as synthetic insulin). In addition, the “concentration of agonist producing half-maximal inhibition of gluconeogenesis” value in the assay with FAO cells (setting [3]) is reported as “approximately the same concentration of agonist”. The “maximum inhibition of gluconeogenesis” value with FAO cells (setting [3]) is recorded as “same maximum inhibition of gluconeogenesis”. The “potency in inhibiting gluconeogenesis relative to the natural hormone” value is listed as 90% in the assay on FAO cells and “about 90%” in the assay with FAO cells (listed as [Trp ¹⁴-A] insulin).

As to porcine A14-phenylalanine insulin, in assay [2], the “biological activity compared with native insulin” value is listed as “virtually the same biological activity as native insulin”.
